Test results as given in PubChem BioAssay (NCI).
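Step 1: Grow cells in 96-well plates. Step 2: Expose to compound for 48 hours at 5 concentrations. Step 3: Interpolate endpoints linearly; if unreached, use highest concentration. Definition used: TGI = concentration required for complete inhibition of growth.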

What was measured:
Assay in all cases: DTP human tumour cell line panel, 48 h
[1] = system: A498 renal
[2] = system: A549 NSCLC
[3] = system: ACHN renal
[4] = system: EKVX NSCLC
[5] = system: HCT-15 colon
[6] = system: HOP-92 NSCLC
[7] = system: HS 578T breast
[8] = system: IGROV1 ovarian
[9] = system: KM12 colon
[10] = system: LOX IMVI melanoma
[11] = system: MDA-MB-435
[12] = system: NCI-H460 lung
[13] = system: NCI-H522 lung
[14] = system: NCI/ADR-RES ovarian
[15] = system: OVCAR-4 ovarian
[16] = system: RPMI-8226 leukemia
[17] = system: RXF 393 renal
[18] = system: SW-620 colon
[19] = system: UO-31 renal
[20] = system: MOLT-4 leukemia

SMILES	TGI [1] [µM]	TGI [2] [µM]	TGI [3] [µM]	TGI [4] [µM]	TGI [5] [µM]	TGI [6] [µM]	TGI [7] [µM]	TGI [8] [µM]	TGI [9] [µM]	TGI [10] [µM]	TGI [11] [µM]	TGI [12] [µM]	TGI [13] [µM]	TGI [14] [µM]	TGI [15] [µM]	TGI [16] [µM]	TGI [17] [µM]	TGI [18] [µM]	TGI [19] [µM]	TGI [20] [µM]
O=[N+]([O-])C(=C(N1CCCCC1)N1CCCCC1)/C(Cl)=C(\Cl)[N+](=O)[O-]	32.1	42.4	9.24	30	5.48	6.6	11.6	3.29	41.7	5.13	19.3	59.9	3.37	50.7	22.8	13.7	2.94	28.7	8.11	–
Cc1ccc2c(c1)C(C1Cc3cccc(C)c3C1=O)OC2=O (stereo not given)	> 100	> 100	> 100	> 100	> 100	> 100	> 100	> 100	> 100	> 100	> 100	> 100	> 100	> 100	> 100	88.3	> 100	> 100	> 100	> 100
COc1cc(C2S/C(=C/c3ccccc3)C(=O)N2c2cc(Cl)c(Cl)cc2Cl)cc(OC)c1OC (stereo not given)	> 78	> 100	> 100	> 88.6	> 100	> 74.6	> 57	> 100	> 78.3	> 79.3	> 100	> 100	> 66.5	> 100	> 100	> 62.4	> 100	> 100	> 100	> 72.4
CN(C)C(=S)N/N=C(\C(=N/NC(=S)N(C)C)c1ccccn1)c1ccccn1	30.2	27.3	20.1	36.7	31.6	22.1	> 46	27.1	33.6	> 100	26	22.7	9.26	62.1	26.8	> 100	18.1	29.9	21.6	–
Cc1coc2c1C(=O)C(=O)c1c-2ccc2c1CCCC2(C)C	25.6	11.9	> 100	> 100	6.4	> 100	> 31.4	29.7	> 92.3	1.9	2.88	10.4	3.98	> 100	> 100	> 33.9	> 100	12.5	14.2	> 100
COc1cc2c(cc1OC)-c1c(oc3cc(OC4OC(CO)C(O)C(O)C4O)c(OC)cc3c1=O)C(O)O2 (stereo not given)	> 100	> 100	> 100	> 100	> 100	> 100	> 100	> 100	> 100	> 100	> 100	> 100	> 100	> 100	> 100	> 100	> 100	> 100	> 100	–
N#C/C(C(=S)Nc1ccccc1)=C(/N)N1CCCC1	> 100	> 100	> 100	> 100	> 100	> 100	> 100	> 100	> 100	> 100	> 100	> 100	> 100	> 100	> 100	> 100	> 100	> 100	> 100	> 100
C=C(C)[C@@H]1CCC2=C[C@H](OC2=O)[C@@]2(C)C[C@@H]2C(=O)/C=C(/C)C(=O)[C@H]1OC(C)=O	57.8	> 71.9	> 48.2	> 49.8	> 55.7	> 93.3	88.6	> 69.3	42	41.3	> 65.2	> 82.3	17.1	> 100	> 63.6	23.5	> 48	> 44.6	> 100	> 39.4
c1ccc2sc(C3(N4CCC5(CC4)OCCO5)CCCCC3)cc2c1	> 100	> 100	> 100	> 100	> 100	> 100	> 100	> 100	> 100	> 100	> 100	> 100	> 100	> 100	> 100	> 100	> 100	> 100	> 100	> 100
CCC1c2[nH]c3ccccc3c2C[C@H]2C(=O)NC(CCCCNC(=O)OC(C)(C)C)C(=O)N12 (stereo not given in full)	> 100	> 100	> 100	> 100	> 100	94.4	76.2	> 100	44.7	54.7	44.3	> 100	50.9	74.6	> 100	63.3	> 100	> 100	> 100	43.5
CC1OC(OC2C(CO)OC(O[C@H]3CC[C@@]4(C)C(=CC[C@H]5[C@@H]6C[C@@H]7O[C@](O)(CC[C@H](C)COC8OC(CO)C(O)C(O)C8O)[C@@H](C)[C@@H]7[C@@]6(C)CC[C@@H]54)C3)C(OC3OC(C)C(O)C(O)C3O)C2O)C(O)C(O)C1O (stereo not given in full)	> 100	5.55	40.3	> 100	10	12.7	6.71	23.1	5.69	4.9	7.03	> 45.7	7.53	18.4	28.8	17.4	98.7	4.02	13.3	–
CCC1c2[nH]c3ccccc3c2C[C@H]2C(=O)N3CCC[C@H]3C(=O)N12 (stereo not given in full)	> 100	> 100	> 100	> 100	> 100	> 100	> 100	> 100	> 100	> 100	> 100	–	> 100	> 100	> 100	> 100	> 100	> 100	> 100	> 100
